Broadly, the IC50 is the concentration that gives 50% inhibition.

The target in one test is T1, PDE3 (Homo sapiens, UniProt Q14432).
T1 construct: investigated in homogenates of human blood platelets; from tissue; host or cells: human blood platelets (homogenate)
The test is described as follows: Inhibition of PDE isoenzymes: PDE3 (cGMP-inhibited), homogenates of human blood platelets. It is filed as biochemical. To be noted: 0.5 μM cAMP or cGMP, pH 7.4, 37° C., 15 min, read-out: -log IC50 PDE3 (converted).

The target of the next test is PDE4. The test is described as follows: Inhibition of PDE isoenzymes: PDE4 (cAMP-specific), cytosol of human polymorphonuclear leukocytes, cAMP as substrate. To be noted: cytosol of human PMNL; 0.5 μM cAMP; motapizone (1 μM) to suppress PDE3; pH 7.4, 37° C., 15 min. In kind it is biochemical.

T1 sequence (Q14432 whole entry): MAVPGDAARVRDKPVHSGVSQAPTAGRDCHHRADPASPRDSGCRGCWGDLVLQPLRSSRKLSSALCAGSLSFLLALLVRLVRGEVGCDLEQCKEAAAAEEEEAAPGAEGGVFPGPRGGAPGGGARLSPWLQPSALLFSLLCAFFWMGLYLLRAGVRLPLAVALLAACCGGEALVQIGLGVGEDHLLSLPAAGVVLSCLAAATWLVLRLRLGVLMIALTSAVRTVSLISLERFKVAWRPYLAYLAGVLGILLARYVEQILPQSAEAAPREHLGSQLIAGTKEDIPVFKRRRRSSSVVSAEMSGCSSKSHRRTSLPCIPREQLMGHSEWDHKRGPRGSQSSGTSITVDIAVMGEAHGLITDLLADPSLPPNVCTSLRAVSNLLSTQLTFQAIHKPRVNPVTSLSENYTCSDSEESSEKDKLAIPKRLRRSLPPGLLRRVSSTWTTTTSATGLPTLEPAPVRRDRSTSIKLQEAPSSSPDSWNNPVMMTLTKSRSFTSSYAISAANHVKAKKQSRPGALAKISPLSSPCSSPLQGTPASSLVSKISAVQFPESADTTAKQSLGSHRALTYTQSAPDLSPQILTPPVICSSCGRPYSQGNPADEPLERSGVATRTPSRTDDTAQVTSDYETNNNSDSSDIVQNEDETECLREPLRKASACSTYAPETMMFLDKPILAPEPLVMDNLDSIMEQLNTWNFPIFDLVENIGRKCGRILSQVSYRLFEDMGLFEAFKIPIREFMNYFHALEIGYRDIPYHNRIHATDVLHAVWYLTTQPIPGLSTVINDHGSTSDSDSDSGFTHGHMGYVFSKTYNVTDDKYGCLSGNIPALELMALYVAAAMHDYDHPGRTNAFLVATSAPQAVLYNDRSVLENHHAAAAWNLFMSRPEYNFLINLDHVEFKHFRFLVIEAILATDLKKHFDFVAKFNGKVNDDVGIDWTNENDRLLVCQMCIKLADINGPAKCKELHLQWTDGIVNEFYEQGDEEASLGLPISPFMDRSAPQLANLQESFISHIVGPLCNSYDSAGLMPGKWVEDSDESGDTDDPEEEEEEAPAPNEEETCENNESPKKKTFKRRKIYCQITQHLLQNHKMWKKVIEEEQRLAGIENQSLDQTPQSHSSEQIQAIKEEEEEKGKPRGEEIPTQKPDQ

As to `COc1ccc(C2=NN(c3ccc(C4=NNC(=O)CC4C)cc3)C(=O)[C@H]3CC=CC[C@@H]23)cc1OC` (relative stereo) [Compound 2, (cis)-4-(3,4-Dimethoxyphenyl)-2-{4-(4-methyl-6-oxo-1,4,5,6-tetrahydropyridazin-3-yl)phenyl}-4a,5,8,8a-tetrahydro-2H-phthalazin-1-one], the IC50 at PDE3 is 0.204 µM. Further, the “-log IC50 PDE4” value at PDE4 turned out to be 8.36 mol/l.
On to `COc1ccc(C2=NN(c3ccc(C(=O)Nc4ccc(C5=NNC(=O)CC5C)cc4)cc3)C(=O)[C@H]3CC=CC[C@@H]23)cc1OC` (relative stereo) [Compound 4, (cis)-N-{4-(4-Methyl-6-oxo-1,4,5,6-tetrahydro-pyridazin-3-yl)phenyl}-4-{4-(3,4-dimethoxyphenyl)-1-oxo-4a,5,8,8a-tetrahydro-1H-phthalazin-2-yl}benzamide], for which the IC50 on PDE3 is 0.891 µM. On PDE4, the “-log IC50 PDE4” value stood at 8.48 mol/l.
Consider `COc1ccc(C2=NN(CC(=O)Nc3ccc(-c4ccc(=O)[nH]n4)cc3)C(=O)[C@@H]3CC=CC[C@H]23)cc1OC` (relative stereo) [Compound 5], for which the IC50 at PDE3 is 1.26 µM. In addition, the “-log IC50 PDE4” value on PDE4 was 8.10 mol/l.
As for `COc1ccc(C2=NN(CCCCC(=O)Nc3ccc(-c4ccc(=O)[nH]n4)cc3)C(=O)[C@@H]3CC=CC[C@H]23)cc1OC` (relative stereo) [Compound 6], the IC50 on PDE3 was 0.832 µM. Further, the “-log IC50 PDE4” value at PDE4 was 8.17 mol/l.
As to `COc1ccc(C2=NN(CC(=O)Nc3ccc(C4=NNC(=O)CC4C)cc3)C(=O)[C@H]3CC=CC[C@@H]23)cc1OC` (relative stereo) [Compound 7, (cis)-N-{4-(4-Methyl-6-oxo-1,4,5,6-tetrahydro-pyridazin-3-yl)phenyl}-2-{4-(3,4-dimethoxy-phenyl)-1-oxo-4a,5,8,8a-tetrahydro-1H-phthalazin-2-yl}acetamide], the IC50 on PDE3 is 0.182 µM. Further, the “-log IC50 PDE4” value on PDE4 was determined as 8.40 mol/l.
As to `COc1ccc(C2=NN(C(C)CCC(=O)Nc3ccc(C4=NNC(=O)CC4C)cc3)C(=O)[C@H]3CC=CC[C@@H]23)cc1OC` (relative stereo) [Compound 8, (cis)-N-{4-(4-Methyl-6-oxo-1,4,5,6-tetrahydro-pyridazin-3-yl)phenyl}-4-{4-(3,4-dimethoxyphenyl)-1-oxo-4a,5,8,8a-tetrahydro-1H-phthalazin-2-yl}valeramide], the IC50 at PDE3 is 0.1 µM. In addition, at PDE4, the “-log IC50 PDE4” value was found to be 8.17 mol/l.
In the same order, the values of `COc1ccc(C2=NN(c3ccc(C(=O)Nc4ccc(-c5ccc(=O)[nH]n5)cc4)cc3)C(=O)[C@H]3CC=CC[C@@H]23)cc1OC` (relative stereo) [Compound 9, (cis)-N-{4-(6-Oxo-1,6-dihydro-pyridazin-3-yl)phenyl}-4-(4-{3,4-dimethoxyphenyl}-1-oxo-4a,5,8,8a-tetrahydro-1H-phthalazin-2-yl)benzamide] are 4.9 µM and 9.08 mol/l.
In the same order, the values of `COc1ccc(C2=NN(c3ccc(C4=NNC(=O)CC4C)cc3)C(=O)[C@H]3CC=CC[C@@H]23)cc1Cl` (relative stereo) [Compound 12, (cis)-4-(3-chloro-4-methoxyphenyl)-2-{4-(4-methyl-6-oxo-1,4,5,6-tetrahydropyridazin-3-yl)phenyl}-4a,5,8,8a-tetrahydro-2H-phthalazin-1-one] are 0.0813 µM and 7.00 mol/l.
Take `COc1ccc(C2=NN(CCCCOc3ccc(C4=NNC(=O)CC4C)cc3)C(=O)[C@H]3CC=CC[C@@H]23)cc1Cl` (relative stereo) [Compound 13, (cis)-6-(4-[4-{4-(3-Chloro-4-methoxyphenyl)-1-oxo-4a,5,8,8a-tetrahydro-2H-phthalazin-2-yl}-1-butyloxy)phenyl]-4,5-dihydro-5-methyl-2H-pyridazin-3-one]: the IC50 on PDE3 was 0.0355 µM. In addition, the “-log IC50 PDE4” value on PDE4 stood at 7.77 mol/l.
In the same order, the values of `CCOc1ccc(C2=NN(c3ccc(C4=NNC(=O)CC4C)cc3)C(=O)[C@H]3CC=CC[C@@H]23)cc1OCC` (relative stereo) [Compound 14, (cis)-4-(3,4-diethoxyphenyl)-2-{4-(4-methyl-6-oxo-1,4,5,6-tetrahydropyridazin-3-yl)phenyl}-4a,5,8,8a-tetrahydro-2H-phthalazin-1-one] are 0.275 µM and 8.05 mol/l.
In the case of `CCOc1ccc(C2=NN(CCCCOc3ccc(C4=NNC(=O)CC4C)cc3)C(=O)[C@H]3CC=CC[C@@H]23)cc1OCC` (relative stereo) [Compound 15, (cis)-6-(4-[4-{4-(3,4-diethoxyphenyl)-1-oxo-4a,5,8,8a-tetrahydro-2H-phthalazin-2-yl}-1-butyloxy)phenyl]-4,5-dihydro-5-methyl-2H-pyridazin-3-one], at PDE3, the half-maximal inhibitory concentration (IC50) was 0.209 µM. In addition, the “-log IC50 PDE4” value on PDE4 stood at 8.60 mol/l.
On the same counts, the results for `COc1ccc(C2=NN(c3ccc(C4=NNC(=O)CC4C)cc3)C(=O)[C@@H]3CC=CC[C@H]23)cc1OC` (stereo partly drawn) [Compound 16, (4aS,8aR)-4-[4-{4-(3,4-dimethoxyphenyl)-1-oxo-4a,5,8,8a-tetrahydro-2H-phthalazin-2-yl}phenyl]-5,6-dihydro-5-methylpyridazin-1-one] are 0.437 µM and 8.64 mol/l.
